Data: patent US6835382B2, “Ii peptide therapeutics to enhance antigen presentation” (University of Massachusetts, priority 1996, dated 2004)
Positions of bridges follow the written chain, without caps; N, C: chain ends. Non-standard residues stand in square brackets, D forms with d. No end group written: not given here. hArg = N=C(N)NCCCC[C@H](N)C(=O)O; Cit = NC(=O)NCCC[C@H](N)C(=O)O

Tests used:
[1] = test system: murine E^k MHC class II allele; assay: simultaneous assay, E^k allele (CH27 APC, TPc9.1 T hybridoma, THMCC82-103 or PGCC81-104); format: cell-based
Summary of the method: (§1)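 Read-out is [3H]TdR incorporation into HT-2 indicator cells exposed to supernatant from a 24 h primary culture. That culture combined mitomycin C-treated APC (5×10^6 cells/mL, 0.025 mg/mL mitomycin C, 20 min, 37° C), peptide, effector compound and T hybridoma, all added at once.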

[2] = target: T1, murine E^d MHC class II allele (Mus musculus, UniProt P01904+P01915); assay: simultaneous assay, E^d allele (A20 APC, G28.C9 T hybridoma, HEL106-116; HT-2 [3H]TdR readout); format: cell-based; set-up: The A20 and CH27 B cell lymphoma lines express H-2^d and H-2^k alleles, respectively; endogenous in cells; host or cells: A20 B cell lymphoma (mitomycin C-treated or paraformaldehyde-fixed)
T1 sequence (P01904 26-255): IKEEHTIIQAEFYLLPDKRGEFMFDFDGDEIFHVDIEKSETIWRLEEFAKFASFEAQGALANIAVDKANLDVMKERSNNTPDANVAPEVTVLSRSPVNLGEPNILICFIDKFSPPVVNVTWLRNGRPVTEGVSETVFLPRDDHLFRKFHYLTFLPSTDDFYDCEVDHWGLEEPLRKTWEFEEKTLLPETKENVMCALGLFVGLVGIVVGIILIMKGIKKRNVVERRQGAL
T1 sequence (P01915 27-264 limits assumed): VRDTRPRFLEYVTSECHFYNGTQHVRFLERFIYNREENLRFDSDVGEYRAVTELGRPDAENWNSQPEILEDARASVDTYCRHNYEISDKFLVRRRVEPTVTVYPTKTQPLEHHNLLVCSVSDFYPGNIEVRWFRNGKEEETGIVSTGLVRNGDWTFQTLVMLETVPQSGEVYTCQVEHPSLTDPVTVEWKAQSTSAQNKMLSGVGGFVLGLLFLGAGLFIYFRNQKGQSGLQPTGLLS
Summary of the method: as §1

[3] = Table 16, AE peptide 4 μM, supernatant 1:8
[4] = Table 18, AE peptide 64 μM, supernatant 1:4
[5] = Table 15, AE peptide 16 μM, supernatant 1:4

| Substance | Times Baseline Response, E^k [1, 3] | Times Baseline Response, E^d [2, 3] | further results |
| --- | --- | --- | --- |
| Ac-LK HArg KYPK-NH2 [AE363] | 1.7 | 1.6 |  |
| cyclic LRMKLPK (bridge (positions not given here); also: cyclic, ring type not given here) [AE381, “head-to-tail” cyclization from the amino-terminus to the carboxyl-terminus of AE114] |  |  | Times Baseline Response, E^k [1, 4]: 0.56; Times Baseline Response, E^d [2, 4]: 2.1; activity in simultaneous assay on E^d and E^k, in words ([2]; Tables 12 and 18): weak |
| Ac-A[Cit]NKNPK-NH2 [AE351] |  |  | Times Baseline Response, E^k [1, 5]: 1.6; Times Baseline Response, E^d [2, 5]: 0.8 |
| Ac-L[hArg]LKYPK-NH2 [AE361] | 4.6 | 8.2 |  |
| Ac-LRMKNPF-NH2 [AE350] |  |  | Times Baseline Response, E^k [1, 5]: 24.2; Times Baseline Response, E^d [2, 5]: 28.6 |
| Ac-LRMMYP[Cit]-NH2 [AE367] | 6.6 | 1.0 |  |
| Ac-LR Orn K HArg PK-NH2 [AE340] |  |  | Times Baseline Response, E^k [1, 5]: 39.5; Times Baseline Response, E^d [2, 5]: 46.6 |
| Ac-LKMKYPK-NH2 [AE362] | 1.3 | 1.2 |  |
| Ac-LRMKYP[Cit]-NH2 [AE364] | 16.6 | 14.0 |  |
| Ac-LR HArg KYP Cit-NH2 [AE366] | 49.4 | 7.3 |  |
| Ac-LRMKLPK (lactam 4-C) [AE382] |  |  | Times Baseline Response, E^k [1, 4]: 18.1; activity in simultaneous assay on E^k, in words ([1]; Tables 2 and 18): moderately active; Times Baseline Response, E^d [2, 4]: 1.9; activity in simultaneous assay on E^d, in words ([2]; text on Table 18): relatively inactive |
| Ac-L[hArg]MKYPK-NH2 [AE360] | 2.5 | 5.8 |  |
| Ac-LRLKYPN-NH2 [AE368] | 11.2 | 9.4 |  |
| Ac-LR HArg MYPK-NH2 [AE365] | 20.1 | 6.1 |  |
| Ac-FK HArg MYP Cit-NH2 [AE371] | 1.5 | 1.6 |  |
| Ac-LRMKYPN-NH2 [AE370] | 7.5 | 8.7 |  |
